The values below come from patent US12428394B2, “2,4-disubstituted pyrimidine derivative, preparation method therefor and use thereof” (CHENGDU ZENITAR BIOMEDICAL TECHNOLOGY CO., LTD., priority 2019, dated 2025).

The target in assay [1] is T1, FLT3 (Homo sapiens, UniProt P36888).
T1 construct: purchased Eurofins
T1 sequence (P36888 27-993): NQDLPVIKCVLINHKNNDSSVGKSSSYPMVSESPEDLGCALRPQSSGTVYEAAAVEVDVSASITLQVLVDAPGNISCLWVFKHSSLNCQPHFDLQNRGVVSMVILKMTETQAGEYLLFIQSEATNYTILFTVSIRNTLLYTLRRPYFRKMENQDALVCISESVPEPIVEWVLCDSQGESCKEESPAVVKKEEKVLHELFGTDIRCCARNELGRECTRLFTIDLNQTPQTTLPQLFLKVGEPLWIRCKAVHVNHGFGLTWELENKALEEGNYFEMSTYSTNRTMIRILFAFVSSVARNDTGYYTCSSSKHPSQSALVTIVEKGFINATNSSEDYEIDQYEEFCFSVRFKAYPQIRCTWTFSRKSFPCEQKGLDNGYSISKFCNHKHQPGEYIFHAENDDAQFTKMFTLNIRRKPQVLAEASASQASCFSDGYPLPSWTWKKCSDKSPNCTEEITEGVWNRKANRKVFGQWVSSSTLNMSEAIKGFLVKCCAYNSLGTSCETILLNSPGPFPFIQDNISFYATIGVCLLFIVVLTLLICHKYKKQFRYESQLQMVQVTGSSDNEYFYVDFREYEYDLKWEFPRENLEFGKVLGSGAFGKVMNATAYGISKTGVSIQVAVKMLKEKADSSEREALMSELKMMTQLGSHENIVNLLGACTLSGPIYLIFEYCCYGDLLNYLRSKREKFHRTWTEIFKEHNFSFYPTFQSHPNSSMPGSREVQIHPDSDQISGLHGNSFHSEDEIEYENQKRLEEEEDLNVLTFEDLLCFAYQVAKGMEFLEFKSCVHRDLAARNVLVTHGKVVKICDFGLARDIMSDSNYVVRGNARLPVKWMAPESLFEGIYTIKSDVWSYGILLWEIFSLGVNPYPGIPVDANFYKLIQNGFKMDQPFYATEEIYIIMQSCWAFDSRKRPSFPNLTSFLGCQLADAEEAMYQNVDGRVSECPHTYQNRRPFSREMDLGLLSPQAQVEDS
Kind of assay: In vitro kinase activity experiment, FLT3. Particulars: 40 min; inhibition rate of enzyme at 500 nM; measured by Eurofins; read-out: Kinase activity @ 500 nM (%) FLT3. The format is biochemical. The essentials: (§1)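 Reactions began on MgATP addition after the kinase, substrate, γ33P-ATP, 10 mM magnesium acetate and compound series were mixed in MOPS buffer pH 7.0 with EDTA and MnCl2. After 40 min at room temperature, phosphate quench, filter-mat capture and washing, incorporated 33P was measured by scintillation counting.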

The test system of assay [2] is MV4-11 cells (FLT3-ITD+/+). The experiment in a line: Inhibition of cell proliferation by MTT experiment, MV4-11. The format is cell-based, human. The settings on record: Homo sapiens, MV4-11; MTT, 72 h; read-out: IC50 value on cell proliferation inhibition, MV4-11 FLT3-ITD+/+. The essentials: (§2)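 MTT assay in MV4-11, MOLM-13 (FLT3-ITD) and SET-2 (JAK2 V617F) cells at 10,000–15,000 cells/well in IMDM with 10% FBS. Cells are exposed to compound for 72 h at 37 °C, then to MTT for 1–3 h. IC50 is fitted from inhibition rates across concentrations.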

Assay [3] concerns MOLM-13 cells (FLT3-ITD-/+). Kind of assay: Inhibition of cell proliferation by MTT experiment, MOLM-13. Particulars: Homo sapiens, MOLM-13; MTT, 72 h; read-out: IC50 value on cell proliferation inhibition, MOLM-13 FLT3-ITD-/+. The format is cell-based, human. The method in brief: as §2
Assay [4] addresses T2, JAK2 (Homo sapiens, UniProt O60674).
T2 construct: purchased Eurofins
Kind of assay: In vitro kinase activity experiment, JAK2. The settings on record: inhibition rate of enzyme at 500 nM; measured by Eurofins. The format is biochemical. The method in brief:
as §1

In assay [5] the test system is SET-2 cells (JAK2 V617F). The experiment in a line: Inhibition of cell proliferation by MTT experiment, SET-2. The format is cell-based. The settings on record: Homo sapiens, SET-2; MTT, 72 h; read-out: IC50 value on cell proliferation inhibition, SET-2 (V617F). The method in brief:
as §2

T2 sequence (O60674 whole entry): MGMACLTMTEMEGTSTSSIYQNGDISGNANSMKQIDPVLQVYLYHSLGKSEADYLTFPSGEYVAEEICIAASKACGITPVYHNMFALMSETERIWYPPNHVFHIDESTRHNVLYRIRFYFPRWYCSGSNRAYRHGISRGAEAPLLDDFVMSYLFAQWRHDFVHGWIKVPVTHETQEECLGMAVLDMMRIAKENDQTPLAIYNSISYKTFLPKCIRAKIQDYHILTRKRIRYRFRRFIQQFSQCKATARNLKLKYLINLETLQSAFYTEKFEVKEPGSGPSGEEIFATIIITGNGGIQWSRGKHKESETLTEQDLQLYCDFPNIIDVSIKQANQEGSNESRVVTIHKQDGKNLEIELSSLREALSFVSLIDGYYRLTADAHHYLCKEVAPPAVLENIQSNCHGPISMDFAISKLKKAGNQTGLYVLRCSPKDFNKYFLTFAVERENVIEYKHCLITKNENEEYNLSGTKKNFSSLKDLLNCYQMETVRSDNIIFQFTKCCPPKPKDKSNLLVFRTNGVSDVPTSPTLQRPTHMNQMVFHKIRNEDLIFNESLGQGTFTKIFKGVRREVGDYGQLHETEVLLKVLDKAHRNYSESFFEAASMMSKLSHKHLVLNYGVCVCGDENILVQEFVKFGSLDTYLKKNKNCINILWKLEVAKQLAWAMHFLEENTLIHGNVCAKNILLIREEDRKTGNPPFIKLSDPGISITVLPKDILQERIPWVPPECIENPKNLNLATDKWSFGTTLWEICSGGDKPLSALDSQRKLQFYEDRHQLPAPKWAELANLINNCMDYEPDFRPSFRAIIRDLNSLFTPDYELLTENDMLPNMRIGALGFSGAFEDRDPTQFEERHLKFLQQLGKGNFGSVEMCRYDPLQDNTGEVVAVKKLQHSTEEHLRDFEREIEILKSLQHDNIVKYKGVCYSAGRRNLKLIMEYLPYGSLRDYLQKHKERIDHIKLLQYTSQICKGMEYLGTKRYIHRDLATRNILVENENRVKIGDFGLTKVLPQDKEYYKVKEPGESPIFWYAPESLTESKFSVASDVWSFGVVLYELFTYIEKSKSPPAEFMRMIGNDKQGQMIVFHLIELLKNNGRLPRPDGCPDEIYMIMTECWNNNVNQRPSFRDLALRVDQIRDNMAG

Turning to `Cc1cnc(Nc2ccc(N3CCC(NCCO)CC3)c(F)c2)nc1-c1cnn(C(C)C)c1` [CLJ-43, 5-methyl-N-(3-fluoro-4-(4-hydroxyethylaminopiperidine-1-yl)phenyl)-4-(1-isopropyl-1H-pyrazole-4-yl) pyrimidine-2-amine], the inhibition at 0.5 µM in assay [1] worked out at 94%. In addition, the results for the IC50 in assay [2], in assay [3] and in assay [5] were 10 to 100 nM, 100 to 1000 nM and 100 to 1000 nM, respectively. Also, the “Kinase activity @ 500 nM (%) JAK2” value in assay [4] stood at 95%.

`Cc1cnc(Nc2ccc(N3CCC4(CC3)CN(C(C)C)C4)c(F)c2)nc1-c1cnn(C(C)C)c1` [CLJ-75, N-(3-fluoro-4-(2,7-diazaspiro [3.5]nonane-2-isopropyl-7-yl)phenyl)-4-(1-isopropyl-1H-pyrazole-4-yl)-5-methylpyrimidine-2-amine]: in assay [1], the inhibition at 0.5 µM stood at 99%. Moreover, the figures for the IC50 in assay [2], in assay [3] and in assay [5] were 1 to 10 nM, 1 to 10 nM and 10 to 100 nM, respectively. Moreover, in assay [4], the “Kinase activity @ 500 nM (%) JAK2” value was determined as 96%.

Take `CCCn1cc(-c2nc(Nc3cc(CN4CCCC(C)C4)c(F)cn3)ncc2F)cn1` (centres unmarked) [CLJ-4, 5-fluoro-N-(5-fluoro-4-((3-methylpiperidine-1-yl)methyl)pyridine-2-yl)-4-(1-propyl-1H-pyrazole-4-yl) pyrimidine-2-amine]: the inhibition at 0.5 µM in assay [1] was 28%. Also, the IC50 in assay [2] is 100 to 1000 nM; in assay [3], 100 to 1000 nM; in assay [5], over 1000 nM. Further, in assay [4], the “Kinase activity @ 500 nM (%) JAK2” value is 38%.

Turning to `Cc1cnc(Nc2ccc(CCNC(=O)/C=C/C(=O)c3ccccc3)cc2)nc1-c1cnn(C(C)C)c1` [CLJ-82, N-(4-((4-(1-isopropyl-1H-pyrazole-4-yl)-5-methylpyrimidine-2-yl)amino)phenethyl)-3-benzoyl acrylamide], in assay [1], the inhibition at 0.5 µM was found to be 12%. For the same molecule, the IC50 in assay [2], in assay [3] and in assay [5] was over 1000 nM in each case. The “Kinase activity @ 500 nM (%) JAK2” value in assay [4] came out at 20%.

For the molecule `CCCn1cc(-c2nc(Nc3cc(CN4CCN(CC)CC4)c(F)cn3)ncc2F)cn1` [CLJ-5, 5-fluoro-N-(5-fluoro-4-((4-ethylpiperazine-1-yl)methyl)pyridine-2-yl)-4-(1-propyl-1H-pyrazole-4-yl) pyrimidine-2-amine], the inhibition at 0.5 µM in assay [1] turned out to be 34%. Also, the values for the IC50 in assay [2], in assay [3] and in assay [5] were 100 to 1000 nM, 100 to 1000 nM and over 1000 nM, respectively. Also, the “Kinase activity @ 500 nM (%) JAK2” value in assay [4] stood at 40%.

Turning to `CCCN(CCN1CCOCC1)C1CCN(c2ccc(Nc3ncc(C)c(-c4cnn(C(C)C)c4)n3)cc2F)CC1` [CLJ-60, N-(3-fluoro-4-(4-(propyl(morpholinoethyl)amino)piperidine-1-yl)phenyl)-4-(1-isopropyl-1H-pyrazole-4-yl)-5-methylpyrimidine-2-amine], the inhibition at 0.5 µM in assay [1] came out at 97%. Further, the IC50 in assay [2] was in the range of 1 to 10 nM; in assay [3], 10 to 100 nM; in assay [5], 100 to 1000 nM. In addition, the “Kinase activity @ 500 nM (%) JAK2” value in assay [4] is listed as 100%.

For the molecule `CCCN1CCC(n2cc(-c3nc(Nc4ccc(N5CCN(C)CC5)cc4)ncc3F)cn2)CC1` [CLJ-11, 5-fluoro-N-(4-(4-methylpiperazine-1-yl)phenyl)-4-(1-(1-propylpiperidine-4-yl)-1H-pyrazole-4-yl) pyrimidine-2-amine], the inhibition at 0.5 µM in assay [1] is 94%. In addition, the IC50 in assay [2] was 10 to 100 nM; in assay [3], 100 to 1000 nM; in assay [5] it was over 1000 nM. Also, the “Kinase activity @ 500 nM (%) JAK2” value in assay [4] came to 78%.

Regarding `CCN1CCN(c2ccc(Nc3ncc(C)c(-c4cnn(C(C)C)c4)n3)cc2F)CC1` [CLJ-30], the inhibition at 0.5 µM in assay [1] is 96%. The IC50 fell in the range of 10 to 100 nM in assay [2], 100 to 1000 nM in assay [3] and 100 to 1000 nM in assay [5]. Also, the “Kinase activity @ 500 nM (%) JAK2” value in assay [4] was 89%.

As to `Cc1cnc(Nc2ccc(NC(=O)[C@H]3C[C@H](F)CN3)c(F)c2)nc1-c1cnn(C(C)C)c1` [CLJ-97, (2R,4S)-4-fluoro-N-(2-fluoro-4-((4-(1-isopropyl-1H-pyrazole-4-yl)-5-methylpyrimidine-2-yl)amino)phenyl) pyrrolidine-2-carboxamide], the inhibition at 0.5 µM in assay [1] stood at 101%. Further, the IC50 in assay [2] fell in the range of 10 to 100 nM; in assay [3] it was 10 to 100 nM; in assay [5] it was 100 to 1000 nM. Moreover, the “Kinase activity @ 500 nM (%) JAK2” value in assay [4] turned out to be 99%.

For `Cc1cnc(Nc2ccc(N3CCC(N(C)CCN4CCCCC4)CC3)c(F)c2)nc1-c1cnn(C(C)C)c1` [CLJ-55, N-(3-fluoro-4-(4-(methyl (1-piperidylethyl)amino)piperidine-1-yl)phenyl)-4-(1-isopropyl-1H-pyrazole-4-yl)-5-methylpyrimidine-2-amine], the inhibition at 0.5 µM in assay [1] amounted to 20%. Moreover, the IC50 in assay [2], in assay [3] and in assay [5] was over 1000 nM each time. For the same molecule, the “Kinase activity @ 500 nM (%) JAK2” value in assay [4] is on record as 25%.

Take `Cc1cnc(Nc2ccc(CNC(=O)/C=C/C(=O)c3ccccc3)cc2)nc1-c1cnn(C(C)C)c1` [CLJ-81, N-(4-((4-(1-isopropyl-1H-pyrazole-4-yl)-5-methylpyrimidine-2-yl)amino)benzyl)-3-benzoyl acrylamide]: in assay [1], the inhibition at 0.5 µM is 22%. Further, the IC50 in assay [2], in assay [3] and in assay [5] was over 1000 nM throughout. The “Kinase activity @ 500 nM (%) JAK2” value in assay [4] is on record as 34%.

Consider `CC(C)n1cc(-c2nc(Nc3ccc(N4CCN(C)CC4)c(F)c3)ncc2F)cn1` [CLJ-24, 5-fluoro-N-(3-fluoro-4-(4-methylpiperazine-1-yl)phenyl)-4-(1-isopropyl-1H-pyrazol-4-yl) pyrimidine-2-amine], for which the inhibition at 0.5 µM in assay [1] came out at 32%. The IC50 in assay [2] was 100 to 1000 nM; in assay [3] it was over 1000 nM; in assay [5], over 1000 nM. Further, in assay [4], the “Kinase activity @ 500 nM (%) JAK2” value stood at 28%.

As to `Cc1cnc(Nc2ccc(CCNC(=O)/C=C/CN(C)C)cc2)nc1-c1cnn(C(C)C)c1` [CLJ-80, (E)-N-(4-((4-(1-isopropyl-1H-pyrazole-4-yl)-5-methylpyrimidine-2-yl)amino)phenylethyl)-4-dimethylamino-2-butenamide], the inhibition at 0.5 µM in assay [1] came to 23%. Besides, the IC50 is 100 to 1000 nM in assay [2], over 1000 nM in assay [3] and over 1000 nM in assay [5]. Further, in assay [4], the “Kinase activity @ 500 nM (%) JAK2” value is on record as 34%.

Turning to `Cc1cnc(Nc2ccc(N3CCC(N(C)CCCCCO)CC3)c(F)c2)nc1-c1cnn(C(C)C)c1` [CLJ-47, 5-methyl-N-(3-fluoro-4-(4-N-hydroxypentyl-4-N-methylaminopiperidine-1-yl)phenyl)-4-(1-isopropyl-1H-pyrazole-4-yl) pyrimidine-2-amine], in assay [1], the inhibition at 0.5 µM was 94%. The figures for the IC50 in assay [2], in assay [3] and in assay [5] were 1 to 10 nM, 10 to 100 nM and 100 to 1000 nM, respectively. Moreover, the “Kinase activity @ 500 nM (%) JAK2” value in assay [4] is 93%.

For the molecule `Cc1cnc(Nc2ccc(CCNC(=O)CCCN(C)C)cc2)nc1-c1cnn(C(C)C)c1` [CLJ-84, N-(4-((4-(1-isopropyl-1H-pyrazole-4-yl)-5-methylpyrimidine-2-yl)amino)phenethyl)-4-dimethylaminobutyramide], the inhibition at 0.5 µM in assay [1] is 78%. In addition, the IC50 in assay [2], in assay [3] and in assay [5] was 100 to 1000 nM in each case. For the same molecule, the “Kinase activity @ 500 nM (%) JAK2” value in assay [4] came to 79%.

On to `CC(C)n1cc(-c2nc(Nc3ccc(N4CCCC4)c(F)c3)ncc2F)cn1` [CLJ-27, 5-fluoro-N-(3-fluoro-4-(pyrrolidine-1-yl)phenyl)-4-(1-isopropylpyrazol-4-yl) pyrimidine-2-amine], for which, in assay [1], the inhibition at 0.5 µM is 24%. The results for the IC50 in assay [2], in assay [3] and in assay [5] were 100 to 1000 nM, over 1000 nM and over 1000 nM, respectively. Also, the “Kinase activity @ 500 nM (%) JAK2” value in assay [4] was 34%.
